Results published in patent publication US20210038515A1 (Azurity Pharmaceuticals, Inc., priority 2014, published 2021).
Counter-ions that a name gives are not always drawn.

Key:
[1] = Stability of vancomycin hydrochloride powder in bottle (HPLC or cylinder plate analysis); conditions: for μg/mg vancomycin hydrochloride powder: Ex. 1, 10 g powder in HDPE bottle; for % Vancomycin B / % other impurities / % Monodechlorovancomycin: Ex. 1 powder in bottle; for Monodechlorovancomycin / Other Impurities / Vancomycin / Vancomycin B: Ex. 4, 15.38 g powder in bottle
Method: Stability may be assessed by cylinder-plate assay (the cylinder plate assay depends on the diffusion of the antibiotic from a vertical cylinder through a solidified agar layer in a petri dish or plate. The growth of the specific microorganisms inoculated into the agar is prevented in a circular area or zone around the cylinder containing the solution of the antibiotic), HPLC or any other known testing method.
The stability of vancomycin hydrochloride powder was evaluated. […] At various time points the powder in the bottle was analyzed for vancomycin hydrochloride, vancomycin B, other impurities, and monodechlorovancomycin by HPLC or cylinder plate analysis.
Vancomycin hydrochloride was further investigated in stability studies. […] At each given time point, vancomycin hydrochloride, vancomycin B, other impurities, and monodechlorovancomycin were assayed by HPLC or total microbiological activity was assessed by cylinder plate analysis.

[2] = 289 mL solution component + 15.38 g powder, shaken 30 seconds
[3] = Ex. 4, 3 months accelerated and ambient

With CN[C@H](CC(C)C)C(=O)N[C@H]1C(=O)N[C@@H](CC(N)=O)C(=O)N[C@H]2C(=O)NC3C(=O)N[C@H](C(=O)N[C@H](C(=O)O)c4cc(O)cc(O)c4-c4cc3ccc4O)[C@H](O)c3ccc(c(Cl)c3)Oc3cc2cc(c3OC2OC(CO)C(O)C(O)C2OC2CC(C)(N)C(O)C(C)O2)Oc2ccc(cc2Cl)[C@H]1O (some centres unmarked) [vancomycin hydrochloride powder, vancomycin hydrochloride] the “μg/mg vancomycin hydrochloride powder” value ([1]; 40° C./75% RH, 0 months) was 1067 µg/mg, the “μg/mg vancomycin hydrochloride powder” value ([1]; 40° C./75% RH, 1 month) was 1076 µg/mg and the “μg/mg vancomycin hydrochloride powder” value ([1]; 40° C./75% RH, 2 months) was 1097 µg/mg. For the same compound, the “μg/mg vancomycin hydrochloride powder” value ([1]; 40° C./75% RH, 3 months) was 1094 µg/mg, the “μg/mg vancomycin hydrochloride powder” value ([1]; 40° C./75% RH, 6 months) was 1137 µg/mg and the “powder in bottle stability” value ([1]; Ex. 1, ambient and accelerated conditions (25° C./60% RH and 40°/75% RH)) was “stable”. For the same compound, the “% Vancomycin B” value ([1]; 25° C./60% (RH), 0 months) was 93.03%, the “% other impurities” value ([1]; 25° C./60% (RH), 0 months) was under 5.0% for all other and the “% Vancomycin B” value ([1]; 25° C./60% (RH), 3 months) was 92.19%. The “% other impurities” value ([1]; 25° C./60% (RH), 3 months) was under 5.0% for all other, the “% Vancomycin B” value ([1]; 25° C./60% (RH), 6 months) was 92.04% and the “% other impurities” value ([1]; 25° C./60% (RH), 6 months) was under 5.0% for all other. For the same compound, the “% Vancomycin B” value ([1]; 25° C./60% (RH), 9 months) was 89.34%, the “% other impurities” value ([1]; 25° C./60% (RH), 9 months) was under 5.0% for all other and the “% Vancomycin B” value ([1]; 25° C./60% (RH), 12 months) was 88.85%. For the same compound, the “% other impurities” value ([1]; 25° C./60% (RH), 12 months) was under 5.0% for all other, the “% Vancomycin B” value ([1]; 25° C./60% (RH), 18 months) was 90.8% and the “% other impurities” value ([1]; 25° C./60% (RH), 18 months) was under 5.0% for all other. For the same compound, the “% Vancomycin B” value ([1]; 40° C./75% RH, 0 months) was 93.03%, the “% other impurities” value ([1]; 40° C./75% RH, 0 months) was under 5.0% for all other and the “% Monodechlorovancomycin” value ([1]; 40° C./75% RH, 1 month) was 1.0%. For the same compound, the “% Vancomycin B” value ([1]; 40° C./75% RH, 1 month) was 91.87%, the “% other impurities” value ([1]; 40° C./75% RH, 1 month) was under 5.0% for all other and the “% Monodechlorovancomycin” value ([1]; 40° C./75% RH, 2 months) was 1.3%. For the same compound, the “% Vancomycin B” value ([1]; 40° C./75% RH, 2 months) was 89.14%, the “% other impurities” value ([1]; 40° C./75% RH, 2 months) was under 5.0% for all other and the “% Monodechlorovancomycin” value ([1]; 40° C./75% RH, 3 months) was 1.6%. The “% Vancomycin B” value ([1]; 40° C./75% RH, 3 months) was 88.22%, the “% other impurities” value ([1]; 40° C./75% RH, 3 months) was under 5.0% for all other and the “% Vancomycin B” value ([1]; 40° C./75% RH, 6 months) was 81.84%. The “% other impurities” value ([1]; 40° C./75% RH, 6 months) was under 5.0% for all other, the Monodechlorovancomycin ([1]; 25° C./60% RH, 0 months) was 1.5% and the “Other Impurities” value ([1]; 25° C./60% RH, 0 months) was under 5.0% for. The Vancomycin ([1]; 25° C./60% RH, 0 months) was 1,112 mcg/mg, the “Vancomycin B” value ([1]; 25° C./60% RH, 0 months) was 94.7% and the Monodechlorovancomycin ([1]; 25° C./60% RH, 3 months) was 1.1%. The “Other Impurities” value ([1]; 25° C./60% RH, 3 months) was under 5.0% for, the Vancomycin ([1]; 25° C./60% RH, 3 months) was 1,070 mcg/mg and the “Vancomycin B” value ([1]; 25° C./60% RH, 3 months) was 91.8%. The Monodechlorovancomycin ([1]; 40° C./60% RH, 0 months) was 1.5%, the “Other Impurities” value ([1]; 40° C./60% RH, 0 months) was under 5.0% for all and the Vancomycin ([1]; 40° C./60% RH, 0 months) was 1,112 mcg/mg. For the same compound, the “Vancomycin B” value ([1]; 40° C./60% RH, 0 months) was 94.7%, the Monodechlorovancomycin ([1]; 40° C./60% RH, 1 month) was 1.4% and the “Other Impurities” value ([1]; 40° C./60% RH, 1 month) was under 5.0% for all. The Vancomycin ([1]; 40° C./60% RH, 1 month) was 1,095 mcg/mg, the “Vancomycin B” value ([1]; 40° C./60% RH, 1 month) was 91.3% and the Monodechlorovancomycin ([1]; 40° C./60% RH, 2 months) was 1.1%. The “Other Impurities” value ([1]; 40° C./60% RH, 2 months) was under 5.0% for all, the Vancomycin ([1]; 40° C./60% RH, 2 months) was 1,108 mcg/mg and the “Vancomycin B” value ([1]; 40° C./60% RH, 2 months) was 90.8%. For the same compound, the Monodechlorovancomycin ([1]; 40° C./60% RH, 3 months) was 1.0%, the “Other Impurities” value ([1]; 40° C./60% RH, 3 months) was under 5.0% for all and the Vancomycin ([1]; 40° C./60% RH, 3 months) was 1,095 mcg/mg. For the same compound, the “Vancomycin B” value ([1]; 40° C./60% RH, 3 months) was 87.6%, the “Monodechlorovancomycin, not exceeded” value [1, 3] was at most 4.7% and the “other impurities, not exceeded” value [1, 3] was at most 5.0%. For the same compound, the powder stability ([1]; Ex. 4, accelerated and ambient (25±2° C./60±5% RH) conditions) was “remained stable through 3 months under accelerated stability conditions and 3 months under ambient” and the “dissolution of powder in the solution component” value [2] was “easily dissolves in the solution component”.
